According to patent US11382884B2, “Method for reducing lung infection” (priority 2017, dated 2022):
Read-outs that look alike come from different tables or passages of the source.

Key:
[1] = tested on: P. aeruginosa WACC91; details: for interaction with tobramycin, planktonic growth (OD600 nm): checkerboard
Method: (§1) Growth method 1: Cells were grown in M9 medium supplemented with arginine and MgSO4, in polystyrene 96-well plates (Nunc) by seeding each well with […] of an overnight culture of P. aeruginosa strain WACC 91 and incubating at 37° C. for 24 hours.
(§2) Anaerobic cultures were incubated in a closed chamber with anaerobic sachets to remove oxygen.
(§3) Planktonic growth was monitored by OD reading or plate counting. Biofilms were quantified by staining with 40 μl of crystal violet stain (1% w/v in water) for 10 min at room temperature, washing twice with 250 μl of water, dissolving the stain in 250 μl of 50% ethanol and reading optical density at 595 nm.
(§4) Cells of P. aeruginosa WACC91 were grown according to method 1 and tested in a checkerboard assay against tobramycin and CaEDTA in varying concentrations.

[2] = tested on: P. aeruginosa WACC91 biofilms; assay: Checkerboard, biofilm growth (crystal violet staining), tobramycin with CaEDTA or buffered CaEDTA; type: cell-based, Pseudomonas aeruginosa
Method: as §1, §2, §3, §4

[3] = tested on: P. aeruginosa biofilms
Method: Biofilm disruption or killing was monitored by growing cells as described and removing planktonic cells by pipetting. The attached biofilm was washed carefully with sterile PBS three times, and fresh medium containing the treatment (tobramycin alone or together with CaNa2EDTA in solution, tris-buffered solution, or as dry powder particles) was added. Plates were incubated for a further 24 hours and metabolic activity was measured. Biofilms were washed as described above, then fresh medium containing 0.02% w/v resazurin was added. Plates were shaken briefly to mix, then incubated at 37° C. for 2 hours. Metabolic activity, as reflected by the conversion of resazurin to resafurin, was assessed by measuring the increase in fluorescence at an excitation wavelength of 530 nm with detection at 590 nm.

[4] = tested on: P. aeruginosa clinical strain biofilms; assay: Biofilms in hanging drops of CF mucus treated with nebulised tobramycin and/or aerosolised EDTA particles; type: cell-based, Pseudomonas aeruginosa; details: for biofilm viability (BacLight LIVE/DEAD, confocal microscopy): 5 min treatment, nebulised tobramycin 20 mg/ml and/or aerosolised EDTA particles 10 mg/ml, 16 hours incubation, FIG. 24A
Method: Biofilms were grown in a realistic in vitro model using suspended drops of cystic fibrosis mucus harvested from epithelial cell lines (Haley, C. L., Colmer-Hamood, J. A., and Hamood, A. N. (2012). Characterization of biofilm-like structures formed by Pseudomonas aeruginosa in a synthetic mucus medium. BMC Microbiol 12, 181.).
Drops of mucus (5 μl) were suspended from an inverted IBIDI cover slip and inoculated with 10^3 cfu, then incubated in a humidified environment at 35° C. for 72 hours to allow biofilm development. […] Controls were treated with a 50/50 solution of nebulised 0.9% saline/water. Following treatment, the drops were incubated for 16 hours, then stained with BacLight LIVE/DEAD (1 μl), and fixed in paraformaldehyde vapour for 30 min. Biofilms were visualised using confocal microscopy.

[5] = 300 mg/day for two weeks (75 mg QID); FIG. 26
Method: Subjects were then discharged and treatment was continued twice a day for four weeks. Patients were monitored for a further four weeks, bringing the total study time to 10 weeks. At each study visit, lung function was measured by spirometry. Data was recorded as the best of three attempts, and results were expressed as % predicted.

[6] = single dose of 75 mg CaEDTA; after 30 minutes; FIG. 28
Method: Vials were then centrifuged at 100 g for 5 min to sediment precipitated proteins and 754 μL of the methanol extract taken for derivatisation. […] Derivatised extract (1 μl) was injected into a Waters microflow HPLC equipped with a triple quad mass […] detector.

[7] = tested on: P. aeruginosa WACC91 planktonic cells; assay: Checkerboard, tobramycin with other chelators; type: cell-based, Pseudomonas aeruginosa; details: for effect on the MIC of tobramycin: concentration-dependent, FIGS. 13 and 14
Method: (§5) Growth method 2: Overnight cultures of the relevant strain of P. aeruginosa were grown in M63 medium supplemented with glucose (0.5% w/v), casamino acids (0.2% w/v) and MgSO4 (1 mM) at 35° C. with shaking. 96-well microplates containing M63 with serial dilutions of antibiotics and adjuvants as indicated were inoculated to OD600 nm 0.01 in a final volume of 200 μl. Plates were incubated at 35° C. overnight without shaking.
Cells were grown according to method 2 and challenged with different concentrations of tobramycin.

[8] = tested on: P. aeruginosa planktonic cells and biofilms; assay: Microplate test of antibiotics of different classes with buffered CaEDTA; type: cell-based, Pseudomonas aeruginosa; details: growth method 2; FIGS. 7-12
Method: as §5, §3
Cells were grown according to method 2 and challenged with buffered CaEDTA and a series of clinically relevant antibiotics of different classes with different modes of action.

[9] = tested on: P. aeruginosa ATCC27853; assay: Time-kill assay, ceftazidime with or without buffered CaEDTA; type: cell-based, Pseudomonas aeruginosa; details: ceftazidime 128 ug/ml, buffered CaEDTA 20 mM
Method: This is likely a result of increased antibiotic killing. Challenge microorganisms were grown on solid agar and suspended in 0.9% Sodium Chloride (SCl) to create a challenge suspension. A 0.1 mL aliquot of the challenge suspension containing approximately 1×10^8 colony forming units was then inoculated into 10 mL Cation-Adjusted Mueller Hinton Broth (CaMHB) with the appropriate antibiotic or antibiotic with chelator, as indicated, and mixed thoroughly. The challenge suspension/antibiotic mixtures were then incubated at 35 degrees C. for the exposure time. At each timepoint, 0.1 mL aliquots were removed and placed into 9.9 mL of Butterfield's Phosphate Buffer with product neutralizers, mixed thoroughly by vortexing, and plated using the appropriate agar. Recovered colonies were enumerated using a hand-tally counter.

[10] = tested on: Burkholderia cepacia planktonic cells; assay: Checkerboard, antibiotics with buffered CaEDTA; type: cell-based; details: FIGS. 15 and 16
Method: (§6) Checkerboard assays of other species were carried out using growth method 1, apart from the following variations. Burkholderia cepacia was incubated at 30° C., and other bacteria were incubated at 37° C. Streptococcus pyogenes and Streptococcus pneumoniae were grown in Todd Hewitt Broth, and Staphylococcus aureus was grown in Veal Infusion Broth.

[11] = tested on: Staphylococcus aureus MRSA; assay: Antibiotics with buffered CaEDTA against MRSA; type: cell-based; details: FIG. 19 (vancomycin), FIG. 21 (ciprofloxacin)
Method: as §6

[12] = tested on: S. aureus MSSA; assay: Ciprofloxacin with buffered CaEDTA against MSSA; type: cell-based, Staphylococcus aureus; details: FIG. 20
Method: as §6

[13] = tested on: P. aeruginosa clinical strain; assay: MIC of tobramycin for the clinical strain; type: cell-based; details: Pseudomonas aeruginosa; P. aeruginosa clinical strain used in the CF mucus model
[14] = tested on: Klebsiella pneumoniae planktonic cells and biofilms; assay: Checkerboard, colistin with buffered CaEDTA; type: cell-based
Method: as §6

[15] = tested on: P. aeruginosa; details: ten CF children, nebulised sodium EDTA and oral tetracycline for three months; cited from earlier work
[16] = 4 ug/ml tobramycin, 6.25 mM CaEDTA, aerobic and anaerobic, FIG. 5

O=C([O-])CN(CCN(CC(=O)[O-])CC(=O)[O-])CC(=O)[O-].[Ca+2].[Na+].[Na+] [CaEDTA]
planktonic growth when CaEDTA is added to tobramycin [1, 16]: reduced | interaction with tobramycin, planktonic growth (OD600 nm) ([1]; aerobic conditions, FIG. 1): synergistic effect | interaction with tobramycin, planktonic growth (OD600 nm) ([1]; anaerobic conditions, FIG. 3): synergistic effect | effect on the MIC of tobramycin ([1]; planktonic cells, aerobic conditions, FIG. 1): lowers the MIC | lowest effective concentration in vitro ([1]; with tobramycin, FIGS. 1B and 2B): 0.078 mM | biofilm growth when CaEDTA is added to tobramycin [2, 16]: reduced | interaction with tobramycin, biofilm growth (CV staining) ([2]; aerobic conditions, checkerboard, FIG. 2): synergistic effect | effect on the concentration of tobramycin required to block biofilm formation ([2]; aerobic, FIG. 2): lowers the concentration of tobramycin required | interaction with tobramycin, biofilms ([2]; anaerobic conditions, checkerboard, FIG. 4): synergistic effect | effect on efficacy of tobramycin against existing biofilms (metabolic activity) ([3]; FIG. 6): increases the efficacy | dependence of the synergistic effect on mode of delivery ([3]; solution or dry powder, FIG. 6B): does not depend on the mode of delivery | interaction with tobramycin, metabolism of biofilms ([3]; submicron particles of CaEDTA, aerosolised, 96-well plates, FIG. 6): synergistic effect | effect on killing of biofilms by tobramycin ([3]; tobramycin concentrations<1 mg/ml, FIG. 6A): substantially enhances killing | biofilm viability (BacLight LIVE/DEAD, confocal microscopy) [4]: some degree of killing | interaction with tobramycin on biofilms in CF mucus ([4]; submicron particles of CaEDTA, tobramycin 325 μg/ml final in droplets, FIG. 24): act synergistically | improvement in lung function (FEV1), average [5]: 16 % points | EDTA inside mucus plugs [6]: up to 1.34 mM

O=C(O)CN(CCN(CC(=O)O)CC(=O)O)CCN(CC(=O)O)CC(=O)O [DTPA, diethylenetriaminepentaacetic acid]
interaction with tobramycin ([7]; FIG. 14): synergy | effect on the MIC of tobramycin [7]: reduce the MIC

O=C(O)CN(CCOCCOCCN(CC(=O)O)CC(=O)O)CC(=O)O [EGTA, ethylene glycol tetraacetic acid]
effect on the MIC of tobramycin [7]: reduce the MIC

C[C@H]1[C@H](NC(=O)/C(=N\OC(C)(C)C(=O)O)c2csc(N)n2)C(=O)N1S(=O)(=O)O [aztreonam]
sensitivity of P. aeruginosa to the antibiotic in the presence of buffered CaEDTA [8]: increases the sensitivity

CC1(C)S[C@@H]2[C@H](NC(=O)C(C(=O)O)c3ccccc3)C(=O)N2[C@H]1C(=O)O (stereo partly shown) [carbenicillin]
sensitivity of P. aeruginosa to the antibiotic in the presence of buffered CaEDTA [8]: increases the sensitivity

CC(C)(O/N=C(\C(=O)N[C@@H]1C(=O)N2C(C(=O)[O-])=C(C[n+]3ccccc3)CS[C@H]12)c1csc(N)n1)C(=O)O [ceftazidime]
rate of killing in the presence of buffered CaEDTA [9]: much more rapid

O=C(O)c1cn(C2CC2)c2cc(N3CCNCC3)c(F)cc2c1=O [ciprofloxacin]
MIC of B. cepacia in the presence of buffered CaEDTA [10]: lowered | MIC in the presence of buffered CaEDTA [11]: reduced MIC values | MIC in the presence of buffered CaEDTA [12]: reduced MIC values

CC[C@H]1OC(=O)[C@H](C)[C@@H](O[C@H]2C[C@@](C)(OC)[C@@H](O)[C@H](C)O2)[C@H](C)[C@@H](O[C@@H]2O[C@H](C)C[C@H](N(C)C)[C@H]2O)[C@](C)(O)C[C@@H](C)C(=O)[C@H](C)[C@@H](O)[C@]1(C)O [erythromycin]
sensitivity of P. aeruginosa to the antibiotic in the presence of buffered CaEDTA [8]: increases the sensitivity

COc1cccc(OC)c1C(=O)N[C@@H]1C(=O)N2[C@@H]1SC(C)(C)[C@@H]2C(=O)O [methicillin]
sensitivity of P. aeruginosa to the antibiotic in the presence of buffered CaEDTA [8]: increases the sensitivity

NC[C@H]1O[C@H](O[C@H]2[C@H](O)[C@@H](O[C@H]3O[C@H](CO)[C@@H](O)[C@H](N)[C@H]3O)[C@H](N)C[C@@H]2N)[C@H](N)C[C@@H]1O [tobramycin]
biofilm formation at sub-MIC concentration ([2]; tobramycin alone, 4 ug/ml, FIG. 5): increase biofilm formation | MIC of B. cepacia in the presence of buffered CaEDTA [10]: lowered | biofilm viability (BacLight LIVE/DEAD, confocal microscopy) [4]: little effect on viability | MIC [13]: > 256 µg/mL

CN[C@H](CC(C)C)C(=O)N[C@H]1C(=O)N[C@@H](CC(N)=O)C(=O)N[C@H]2C(=O)N[C@H]3C(=O)N[C@H](C(=O)N[C@H](C(=O)O)c4cc(O)cc(O)c4-c4cc3ccc4O)[C@H](O)c3ccc(c(Cl)c3)Oc3cc2cc(c3O[C@@H]2O[C@H](CO)[C@@H](O)[C@H](O)[C@H]2O[C@H]2C[C@](C)(N)[C@H](O)[C@H](C)O2)Oc2ccc(cc2Cl)[C@H]1O [vancomycin]
MIC in the presence of buffered CaEDTA [11]: reduced MIC values

colistin
sensitivity of P. aeruginosa to the antibiotic in the presence of buffered CaEDTA [8]: increases the sensitivity | sensitivity of planktonic cells in the presence of buffered CaEDTA ([14]; FIG. 17A): sensitized | sensitivity of biofilms in the presence of buffered CaEDTA ([14]; FIG. 17B): sensitized

sodium EDTA
lung function or infection status [15]: no change in lung function or infection status
